Like-named read-outs stand apart in the source and are kept apart here.
Tests used:
HCC827/OR cells = assay: Cell viability assay (CellTiter-Glo 2.0), osimertinib-resistant HCC827/OR cells; type: cell-based, human; settings: Homo sapiens, HCC827; Table 2; 72 h drug treatment, EGFR TKI resistant cells, combination with EGFR TKI; read-out: Relative cell viability; IC50 HCC827OR
Description: (§1) To explore c-MET and AXL mechanisms of EGFR TKI resistance, resistant cells of the EGFR TKI hypersensitive EGFR exon 19 mutant NSCLC cell line, HCC827 and PC9 were generated by exposing these cells to increasing concentrations of EGFR TKI for over 3 months.
(§2) Gefitinib-resistant cells were referred to as HCC827/GR. […] Osimertinib-resistant cells were referred to as HCC827/OR.

HCC827/ER cells = assay: Cell viability assay (CellTiter-Glo 2.0), erlotinib-resistant HCC827/ER cells; type: cell-based, human; settings: Homo sapiens, HCC827ER, Table 2, 72 h drug treatment, EGFR TKI resistant cells, combination with EGFR TKI, read-out: Relative cell viability
Description: as §1, §2

HCC827/GR cells = assay: Cell viability assay (CellTiter-Glo 2.0), gefitinib-resistant HCC827/GR cells; type: cell-based, human; settings: Homo sapiens, read-out: Relative cell viability, IC50 HCC827GR
Description: as §1
The human cell line HCC827 was purchased from the American Type Culture Collection (Manassas, VA), and the PC9 cell line was obtained from RIKEN Cell Bank (Ibaraki, Japan). […] Gefitinib-resistant cells were referred to as HCC827/GR. […] Osimertinib-resistant cells were referred to as HCC827/OR.
(§3) Cell viability assays were carried out by plating 1,000 cells per well of HCC827 or PC9 resistant cells, respectively, into white transparent-bottom 384-well plates. The cells were treated with each TKI across a 10-dose range from 1 nM to 10,000 nM. After 72 h of drug treatment, cell viability was measured using the CellTiter-Glo 2.0 assay (Promega, Madison, WI).
as §3

PC9/ER cells = assay: Cell viability assay (CellTiter-Glo 2.0), erlotinib-resistant PC9/ER cells; type: cell-based; settings: Homo sapiens, PC-9/ER; Table 2; 72 h drug treatment, EGFR TKI resistant cells, combination with EGFR TKI; read-out: Relative cell viability; IC50 PC9ER
Description: as §1, §2

[1] = HCC827, Table 2, 72 h drug treatment, EGFR TKI resistant cells, combination with EGFR TKI

| IC50 (HCC827/OR cells) | IC50 (HCC827/ER cells) | IC50 (HCC827/GR cells; [1]) | IC50 (PC9/ER cells) | SMILES | IC50 (HCC827/GR cells; HCC827, 72 h) |
| --- | --- | --- | --- | --- | --- |
| < 10 nM | < 10 nM | < 10 nM | < 10 nM | CC(C)n1cc(C(=O)Nc2ccc(Oc3ccnc(N)c3C#CC(=O)N3CCNCC3)c(F)c2)c(=O)n(-c2ccc(F)cc2)c1=O [Example 1, N-(4-(2-amino-3-(3-oxo-3-(piperazin-1-yl)prop-1-ynyl)pyridin-4-yloxy)-3-fluorophenyl)-3-(4-fluorophenyl)-1-isopropyl-2,4-dioxo-1,2,3,4-tetrahydropyrimidine-5-carboxamide] |  |
| < 10 nM | < 10 nM | < 10 nM | < 10 nM | COCCN1CCN(C(=O)C#Cc2c(Oc3ccc(NC(=O)c4cn(C(C)C)c(=O)n(-c5ccc(F)cc5)c4=O)cc3F)ccnc2N)CC1 [Example 2, N-(4-(2-amino-3-(3-(4-(2-methoxyethyl)piperazin-1-yl)-3-oxoprop-1-ynyl)pyridin-4-yloxy)-3-fluorophenyl)-3-(4-fluorophenyl)-1-isopropyl-2,4-dioxo-1,2,3,4-teterahydropyrimidine-5-carboxamide] |  |
| < 100 nM | < 100 nM | < 100 nM | < 1000 nM | CC(C)n1cc(C(=O)Nc2ccc(Oc3ccnc(N)c3/C=C/C(=O)N3CCNCC3)c(F)c2)c(=O)n(-c2ccc(F)cc2)c1=O [Example 3, (E)-N-(4-(2-amino-3-(3-oxo-3-(piperazin-1-yl)prop-1-enyl)pyridin-4-yloxy)-3-fluorophenyl)-3-(4-fluorophenyl)-1-isopropyl-2,4-dioxo-1,2,3,4-tetrahydropyrimidine-5-carboxamide] |  |
| < 10 nM | < 10 nM | < 10 nM | < 1000 nM | COCCN1CCN(C(=O)/C=C/c2c(Oc3ccc(NC(=O)c4cn(C(C)C)c(=O)n(-c5ccc(F)cc5)c4=O)cc3F)ccnc2N)CC1 [Example 4, (E)-N-(4-(2-amino-3-(3-(4-(2-methoxyethyl)piperazin-1-yl)-3-oxoprop-1-enyl)pyridin-4-yloxy)-3-fluorophenyl)-3-(4-fluorophenyl)-1-isopropyl-2,4-dioxo-1,2,3,4-tetrahydropyrimidine-5-carboxamide] |  |
| < 100 nM | < 10 nM | < 100 nM | < 1000 nM | CC(C)n1cc(C(=O)Nc2ccc(Oc3ccnc(N)c3C#N)c(F)c2)c(=O)n(-c2ccc(F)cc2)c1=O [Example 5, N-(4-(2-amino-3-cyanopyridin-4-yloxy)-3-fluorophenyl)-3-(4-fluorophenyl)-1-isopropyl-2,4-dioxo-1,2,3,4-tetrahydropyrimidine-5-carboxamide] |  |
|  |  |  |  | CC(C)n1cc(C(=O)Nc2ccc(Oc3ccnc(N)c3Cl)c(F)c2)c(=O)n(-c2ccc(F)cc2)c1=O [Example 6, N-(4-(2-amino-3-chloropyridin-4-yloxy)-3-fluorophenyl)-3-(4-fluorophenyl)-1-isopropyl-2,4-dioxo-1,2,3,4-tetrahydropyrimidine-5-carboxamide] | < 100 nM |
| < 10 nM | < 10 nM | < 10 nM | < 1000 nM | CC(C)n1cc(C(=O)Nc2ccc(Oc3ccnc(N)c3-c3cnn(C)c3)c(F)c2)c(=O)n(-c2ccc(F)cc2)c1=O [Example 7, N-(4-(2-amino-3-(1-methyl-1H-pyrazol-4-yl)pyridin-4-yloxy)-3-fluoropehynl)-1-isopropyl-2,4-dioxo-1,2,3,4-tetrahydropyrimidine-5-carboxamide] |  |
| < 100 nM | < 100 nM | < 100 nM | > 10000 nM | CC(C)n1cc(C(=O)Nc2ccc(Oc3ccnc(N)c3C#Cc3ccccn3)c(F)c2)c(=O)n(-c2ccc(F)cc2)c1=O [Example 9, N-(4-(2-amino-3-(pyridin-2-ylethnyl)pyridin-4-yloxy)-3-fluorophenyl)-3-(4-fluorophenyl)-1-isopropyl-2,4-dioxo-1,2,3,4-tetrahydropyrimidine-5-carboxamide] |  |
| < 1000 nM | < 1000 nM | < 1000 nM | < 100 nM | CC(C)n1cc(C(=O)Nc2ccc(Oc3ccnc(N)c3-c3ccc(Oc4ccccc4)cc3)c(F)c2)c(=O)n(-c2ccc(F)cc2)c1=O [Example 10] |  |
| < 10000 nM | < 10000 nM | < 10000 nM | < 10000 nM | Cc1noc(C)c1-c1c(Oc2ccc(NC(=O)c3cn(C(C)C)c(=O)n(-c4ccc(F)cc4)c3=O)cc2F)ccnc1N [Example 11] |  |
| < 10 nM | < 100 nM | < 100 nM | < 1000 nM | CCCn1cc(-c2c(Oc3ccc(NC(=O)c4cn(C(C)C)c(=O)n(-c5ccc(F)cc5)c4=O)cc3F)ccnc2N)cn1 [Example 12, N-(4-(2-amino-3-(1-propyl-1H-pyrazol-4-yl)pyridine-4-yloxy)-3-fluorophenyl)-3-(4-fluorophenyl)-1-isopropyl-2,4-dioxo-1,2,3,4-tetrahydropyrimidine-5-carboxamide] |  |
| < 10 nM | < 10 nM | < 10 nM | < 10 nM | CCCn1cc(C#Cc2c(Oc3ccc(NC(=O)c4cn(C(C)C)c(=O)n(-c5ccc(F)cc5)c4=O)cc3F)ccnc2N)cn1 [Example 13, N-(4-(2-amino-3-((1-propyl-1H-pyrazol-4-yl)ethynyl)pyridin-4-yloxy)-3-fluorophenyl)-3-(4-fluorophenyl)-1-isopropyl-2,4-dioxo-1,2,3,4-tetrahydropyrimidine-5-carboxamide] |  |
| < 10 nM | < 10 nM | < 100 nM | < 10 nM | CC(C)n1cc(C(=O)Nc2ccc(Oc3ccnc(N)c3C#CC(=O)N3CCOCC3)c(F)c2)c(=O)n(-c2ccc(F)cc2)c1=O [Example 14, N-(4-(2-amino-3-(3-morpholino-3-oxoprop-1-ynyl)pyridin-4-yloxy)-3-fluorophenyl)-3-(4-fluorophenyl)-1-isopropyl-2,4-dioxo-1,2,3,4-tetrahydropyrimidine-5-carboxamide] |  |
| < 10 nM | < 100 nM | < 100 nM | < 10 nM | CC(C)n1cc(C(=O)Nc2ccc(Oc3ccnc(N)c3C#CC3CCNCC3)c(F)c2)c(=O)n(-c2ccc(F)cc2)c1=O [Example 15, N-(4-(2-amino-3-(piperidin-4-ylethynyl)pyridin-4-yloxy)-3-fluorophenyl)-3-(4-fluorophenyl)-1-isopropyl-2,4-dioxo-1,2,3,4-tetrahydropyrimidine-5-carboxamide] |  |
| < 10 nM | < 10 nM | < 10 nM | < 10 nM | COCCN1CCC(C#Cc2c(Oc3ccc(NC(=O)c4cn(C(C)C)c(=O)n(-c5ccc(F)cc5)c4=O)cc3F)ccnc2N)CC1 [Example 16] |  |
| < 100 nM | < 100 nM | < 100 nM | < 100 nM | CC(C)n1cc(C(=O)Nc2ccc(Oc3ccnc(N)c3C#CCN3CCNCC3)c(F)c2)c(=O)n(-c2ccc(F)cc2)c1=O [Example 17] |  |
| < 10 nM | < 10 nM | < 100 nM | < 100 nM | COCCN1CCN(CC#Cc2c(Oc3ccc(NC(=O)c4cn(C(C)C)c(=O)n(-c5ccc(F)cc5)c4=O)cc3F)ccnc2N)CC1 [Example 18, N-(4-(2-amino-3-(3-(4-(2-methoxyethyl)piperazin-1-yl)prop-1-ylny)pyridin-4-yloxy)-3-fluorophenyl)-3-(4-fluorophenyl)-1-isopropyl-2,4-dioxo-1,2,3,4-tetrahydropyrimidine-5-carboxamide] |  |
| < 100 nM | < 10 nM | < 100 nM | < 100 nM | CC(C)n1cc(C(=O)Nc2ccc(Oc3ccnc(N)c3C#CC(C)(C)N3CCNCC3)c(F)c2)c(=O)n(-c2ccc(F)cc2)c1=O [Example 19, N-(4-(2-amino-3-(3-methyl-3-(piperazin-1-yl)but-1-ynyl)pyridin-4-yloxy)-3-fluorophenyl)-3-(4-fluorophenyl)-1-isopropyl-2,4-dioxo-1,2,3,4-tetrahydropyridmidine-5-carboxamide] |  |
| < 10 nM | < 10 nM | < 10 nM | < 10 nM | COCCN1CCN(C(C)(C)C#Cc2c(Oc3ccc(NC(=O)c4cn(C(C)C)c(=O)n(-c5ccc(F)cc5)c4=O)cc3F)ccnc2N)CC1 [Example 20, N-(4-(2-amino-3-(3-(4-(2-methoxyethyl)piperazin-1-yl)-3-methylbut-1-ynyl)pyridin-4-yloxy)-3-fluorophenyl)-3-(4-fluorophenyl)-1-isopropyl-2,4-dioxo-1,2,3,4-tetrahydropyrimidine-5-carboxamide] |  |
| < 1000 nM | < 1000 nM | < 100 nM | < 1000 nM | COCCN1CCN(C(=O)CCc2c(Oc3ccc(NC(=O)c4cn(C(C)C)c(=O)n(-c5ccc(F)cc5)c4=O)cc3F)ccnc2N)CC1 [Example 21, N-(4-(2-amino-3-(3-(4-(2-methoxyethyl)piperazin-1-yl)-3-oxopropyl)pyridin-4-yloxy)-3-fluorophenyl)-3-(4-fluorophenyl)-1-isopropyl-2,4-dioxo-1,2,3,4-tetrahydropyrimidine-5-carboxamide] |  |

Source: US12421207B2 (CMG Pharmaceutical Co., Ltd., priority 2022, dated 2025)
